Source: EP2857388A1, “Azoles containing sulfone” (Grünenthal GmbH, priority 2013, dated 2015)

Molecular target: T1, human B1R (Homo sapiens, UniProt P46663)
T1 construct: expressed in transfected cells; host or cells: CHO K1 cells (Chinese Hamster Ovary), stably transfected
T1 sequence (P46663 1-353): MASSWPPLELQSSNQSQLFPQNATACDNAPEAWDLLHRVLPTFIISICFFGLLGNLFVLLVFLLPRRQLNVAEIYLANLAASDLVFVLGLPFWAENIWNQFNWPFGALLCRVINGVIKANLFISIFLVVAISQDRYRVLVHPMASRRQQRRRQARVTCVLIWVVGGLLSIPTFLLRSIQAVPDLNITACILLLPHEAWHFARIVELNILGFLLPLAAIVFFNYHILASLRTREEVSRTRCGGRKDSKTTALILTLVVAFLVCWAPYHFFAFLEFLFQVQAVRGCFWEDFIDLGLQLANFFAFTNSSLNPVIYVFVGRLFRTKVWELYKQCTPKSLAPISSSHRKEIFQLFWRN
Test: Functional assay at bradykinin receptor 1 (B1R): Ca2+ fluorescence (Fluo-4) in FLIPR/Novostar, antagonist mode
Assay type: cell-based
Details: test substance 10 µM; CHO K1 cells stably transfected with human B1R gene (hB1R-Zellen); agonist Lys-Des-Arg9-Bradykinin at EC80; % inhibition relative to maximal achievable inhibition; read-out: % Inhibierung (human B1R) bei 10 µM
Outline: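 Antagonism read as suppression of the Ca2+ rise in Fluo-4-loaded, hB1R-transfected CHO K1 cells when Lys-Des-Arg9-bradykinin (EC80) follows a 6–20 min compound preincubation. Maximal fluorescence counts, measured on FLIPR or Novostar, yield % inhibition relative to maximum; IC50 values come from concentration series run in duplicate or triplicate.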

Structure (SMILES)	inhibition at 10 µM [%]
COc1cc(C)c(S(=O)(=O)Cc2nc(CC(=O)N(C)C3CCNCC3(C)C)no2)c(C)c1 (stereo not drawn) [CC-101, N-(3,3-Dimethyl-piperidin-4-yl)-2-[5-[[(4-methoxy-2,6-dimethyl-phenyl)sulfonyl]-methyl]-[1,2,4]oxadiazol-3-yl]-N-methyl-acetamid]	100
Cc1cc(S(=O)(=O)Cc2noc(C(=O)N(C)CCC3CCN(c4ccncc4)CC3)n2)c(C)cc1Cl [CC-16, 3-[[(4-Chlor-2,5-dimethyl-phenyl)sulfonyl]-methyl]-N-methyl-N-[2-(1-pyridin-4-yl-piperidin-4-yl)-ethyl]-[1,2,4]oxadiazol-5-carbonsäure amid]	100
COCCN1CCC(NC(=O)Cn2cc(CS(=O)(=O)c3c(C)cc(OC)cc3C)nn2)C(C)(C)C1 (stereo not drawn) [CC-160, 2-[4-[[(4-Methoxy-2,6-dimethyl-phenyl)sulfonyl]-methyl]-1H-[1,2,3]triazol-1-yl]-N-[1-(2-methoxy-ethyl)-3,3-dimethyl-piperidin-4-yl]-acetamid]	100
COc1cc(C)c(S(=O)(=O)Cc2nc(CC(=O)N(C3CCC(N(C)C)CC3)C3CC3)no2)c(C)c1 (stereo not drawn) [CC-116, N-Cyclopropyl-N-(4-dimethylamino-cyclohexyl)-2-[5-[[(4-methoxy-2,6-dimethyl-phenyl)sulfonyl]-methyl]-[1,2,4]oxadiazol-3-yl]-acetamid]	100
Cc1cc(S(=O)(=O)Cc2noc(C(=O)N3CCC4(CC3)CCN(c3ccncc3)CC4)n2)c(C)cc1Cl [CC-146, [3-[[(4-Chlor-2,5-dimethyl-phenyl)sulfonyl]-methyl]-[1,2,4]oxadiazol-5-yl]-(9-pyridin-4-yl-3,9-diazaspiro[5.5]undecan-3-yl)-methanon]	100
COc1cc(C)c(S(=O)(=O)Cc2c(C)nn(CC(=O)NC3CCC(N4CCCC4)CC3(C)C)c2C)c(C)c1 (stereo not drawn) [CC-170, N-(2,2-Dimethyl-4-pyrrolidin-1-yl-cyclohexyl)-2-[4-[[(4-methoxy-2,6-dimethyl-phenyl)sulfonyl]-methyl]-3,5-dimethyl-1H-pyrazol-1-yl]-acetamid]	99
Cc1cc(S(=O)(=O)Cc2noc(C(=O)NC3CCC(N(C)C)CC3)n2)c(C)cc1Cl (stereo not drawn) [CC-13, 3-[[(4-Chlor-2,5-dimethyl-phenyl)sulfonyl]-methyl]-N-(4-dimethylamino-cyclohexyl)-[1,2,4]oxa-diazol-5-carbonsäure amid]	99
COc1cc(C)c(S(=O)(=O)Cc2noc(C(=O)N[C@H]3CCC[C@@H](N4CCN(C)CC4)C3)n2)c(C)c1 [CC-01, 3-[[(4-Methoxy-2,6-dimethyl-phenyl)sulfonyl]-methyl]-N-[(1S,3R)-3-(4-methyl-piperazin-1-yl)-cyclohexyl]-[1,2,4]oxadiazol-5-carbonsäure amid]	100
COc1cc(C)c(S(=O)(=O)Cc2cc(C)n(CC(=O)NC3CCC(N4CCCC4)CC3(C)C)n2)c(C)c1 (stereo not drawn) [CC-155, N-(2,2-Dimethyl-4-pyrrolidin-1-yl-cyclohexyl)-2-[3-[[(4-methoxy-2,6-dimethyl-phenyl)sulfonyl]-methyl]-5-methyl-1 H-pyrazol-1-yl]-acetamid]	98
Cc1cccc(Cl)c1S(=O)(=O)Cc1noc(CC(=O)N(C)C2CCNCC2(C)C)n1 (stereo not drawn) [CC-110, 2-[3-[[(2-Chlor-6-methyl-phenyl)sulfonyl]-methyl]-[1,2,4]oxadiazol-5-yl]-N-(3,3-dimethyl-piperidin-4-yl)-N-methyl-acetamid]	87
COc1cc(C)c(S(=O)(=O)Cc2nnc(CC(=O)NC3CCC(N4CCN(C)CC4)CC3(C)C)o2)c(C)c1 (stereo not drawn) [CC-86, N-[2,2-Dimethyl-4-(4-methyl-piperazin-1-yl)-cyclohexyl]-2-[5-[[(4-methoxy-2,6-dimethylphenyl)sulfonyl)-methyl]-[1,3,4]oxadiazol-2-yl]-acetamid]	100
O=C(Cc1nc(CS(=O)(=O)c2cccc(Cl)c2Cl)no1)NC1CCNCC1 [CC-54, 2-[3-[[(2,3-Dichlor-phenyl)sulfonyl]-methyl]-[1,2,4]oxadiazol-5-yl]-N-piperidin-4-yl-acetamid]	52
COc1cc(C)c(S(=O)(=O)Cc2noc(C(=O)NC3CCN(c4ccc(C(F)(F)F)cn4)CC3)n2)c(C)c1 [CC-02, 3-[[(4-Methoxy-2,6-dimethyl-phenyl)sulfonyl]-methyl]-N-[1-[5-(trifluormethyl)-pyridin-2-yl]-piperidin-4-yl]-[1,2,4]oxadiazol-5-carbonsäure amid]	86
CN(C)C1CCC(NC(=O)Cc2nc(CS(=O)(=O)c3ccc(Cl)c(Cl)c3)no2)CC1 (stereo not drawn) [CC-50, 2-[3-[[(3,4-Dichlorphenyl)sulfonyl]-methyl]-[1,2,4]oxadiazol-5-yl]-N-(4-dimethylamino-cyclohexyl)-acetamid]	54
COc1cc(C)c(S(=O)(=O)Cc2c(C)nn(CC(=O)N(C3CCC(N(C)C)CC3)C3CC3)c2C)c(C)c1 (stereo not drawn) [CC-118, N-Cyclopropyl-N-(4-dimethylamino-cyclohexyl)-2-[4-[[(4-methoxy-2,6-dimethyl-phenyl)sulfonyl]-methyl]-3,5-dimethyl-1H-pyrazol-1-yl]-acetamid]	93

Results, then the molecule that gave them:

inhibition at 10 µM [%]	Structure (SMILES)
100	COc1cc(C)c(S(=O)(=O)Cc2noc(CC(=O)N(C)[C@H]3CCC[C@@H](N4CCN(C)CC4)C3)n2)c(C)c1 [SC-44, 2-[3-[[(4-Methoxy-2,6-dimethyl-phenyl)sulfonyl]-methyl]-[1,2,4]oxadiazol-5-yl]-N-methyl-N-[(1S,3R)-3-(4-methyl-piperazin-1-yl)-cyclohexyl]-acetamid]
100	COc1cc(C)c(S(=O)(=O)Cc2noc(CC(=O)N(C)C3CCN(Cc4ccc(N5CCCC5)nc4)CC3)n2)c(C)c1 [SC-65, 2-[3-[[(4-Methoxy-2,6-dimethyl-phenyl)sulfonyl]-methyl]-[1,2,4]oxadiazol-5-yl]-N-methyl-N-[1-[(6-pyrrolidin-1-yl-pyridin-3-yl)-methyl]-piperidin-4-yl]-acetamid]
100	COc1cc(C)c(S(=O)(=O)Cc2noc(CC(=O)N(C)C3CCC4(CCN(C)CC4)CC3(C)C)n2)c(C)c1 (stereo not drawn) [SC-33, 2-[3-[[(4-Methoxy-2,6-dimethyl-phenyl)sulfonyl]-methyl]-[1,2,4]oxadiazol-5-yl]-N-methyl-N-(4,4,9-trimethyl-9-azaspiro[5.5]undecan-3-yl)-acetamid]
100	COc1cc(C)c(S(=O)(=O)Cc2noc(CC(=O)N(C)C3CCN(c4ccnc(N(C)C)c4)CC3)n2)c(C)c1 [SC-67, N-[1-(2-Dimethylamino-pyridin-4-yl)-piperidin-4-yl]-2-[3-[[(4-methoxy-2,6-dimethyl-phenyl)-sulfonyl]-methyl]-[1,2,4]oxadiazol-5-yl]-N-methyl-acetamid]
98	COc1cc(C)c(S(=O)(=O)Cc2noc(CC(=O)NC3CCC(c4ccncc4)CC3(C)C)n2)c(C)c1 (stereo not drawn) [SC-32, N-(2,2-Dimethyl-4-pyridin-4-yl-cyclohexyl)-2-[3-[[(4-methoxy-2,6-dimethyl-phenyl)sulfonyl]-methyl]-[1,2,4]oxadiazol-5-yl]-acetamid]
99	COc1cc(C)c(S(=O)(=O)Cc2noc(C(=O)N3CCC(Cc4ccncc4)CC3)n2)c(C)c1 [SC-08, [3-[[(4-Methoxy-2,6-dimethyl-phenyl)sulfonyl]-methyl]-[1,2,4]oxadiazol-5-yl]-[4-(pyridin-4-yl-methyl)-piperidin-1-yl]-methanon]
